Among the data in PubChem BioAssay (NCI) are GI50 and TGI values, retold here.

Several values for one entry are separate records, joined by “and”; a condition that tells them apart may be missing. Identical values can stand only once.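 Five compound concentrations were applied to cells in 96-well plates for 48 hours; endpoints were derived by simple linear interpolation of the resulting dose-response curve. At the GI50, growth is halved. TGI is the concentration that stops growth completely.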

Common to all, as to assay: NCI-60 cell line screen, 48 h
Assay [1] deals with OVCAR-8 ovarian.
For assay [2], the system named is K-562 leukemia.
Assay [3] concerns SF-539 CNS.
For assay [4], the system named is M14 melanoma.
Assay [5] has as its system NCI-H226 lung.
Assay [6] has as its system BT-549 breast.
Assay [7] concerns HCC-2998 colon.
Assay [8] concerns RPMI-8226 leukemia.
In assay [9] the test system is MDA-MB-435.
Assay [10] concerns UACC-257 melanoma.

In the case of `COc1ccc(/C=N\NC(=O)c2ccc3nc(-c4ccc(Cl)cc4)[nH]c3c2)cc1`, the GI50 in [1] was 3.19 µM; in [2] it was 2.69 µM; in [3], 1.73 µM; in [4], 2.41 µM; in assay [5], 1.79 µM; in assay [6], 3.36 µM. The GI50 is 2.57 µM in assay [7], 0.997 µM in assay [8], 3.11 µM in [9] and 3.27 µM in assay [10]. Also, the TGI in [1] is 11.5 µM; in assay [2], 11.2 µM; in assay [3] it was 3.46 µM; in assay [4] it was 7.76 µM; in assay [5], 4.43 µM; in assay [6], 16.4 µM. Besides, the TGI turned out to be 6.44 µM in [7], 4.77 µM in [8], 9.84 µM in assay [9] and 10.1 µM in [10].
For `CC#CC#C/C=C1\C=CC2(OC=CC2OC(C)=O)O1` (stereo unspecified), the TGI is > 100 µM and 51.7 µM in assay [1]; > 100 µM and 54.8 µM in assay [2]; 76.9 µM and 48.8 µM in [3]; > 100 µM and 37.9 µM in assay [4]; > 100 µM and 23.4 µM in [5]; more than 100 µM in assay [6]. Moreover, the TGI is 69.9 µM and 45.9 µM in assay [7]; more than 100 µM in assay [8]; more than 100 µM in assay [9]; > 100 µM and 33.6 µM in [10]. The GI50 in [5] was > 100 µM and 11.1 µM; in [10], 30.5 µM and 15 µM.
For `O=C1NC(=O)[C@@H](c2c[nH]c3ccccc23)[C@@H]1c1c[nH]c2ccccc12`, the GI50 in [1], in assay [2], in [3], in assay [4], in assay [5] and in assay [6] was more than 25 µM throughout. The GI50 in [7], in [8], in [9] and in assay [10] was more than 25 µM in each case. Besides, the TGI in [1], in assay [2], in [3], in assay [4], in assay [5] and in [6] was more than 25 µM throughout. The TGI in [7], in [8], in [9] and in assay [10] was more than 25 µM in each case.
On to `COc1ccc(C2=N[C@@H](c3ccc(Cl)cc3)[C@@H](c3ccc(Cl)cc3)N2C(=O)N2CCNC(=O)C2)c(OC(C)C)c1`, for which the GI50 in assay [1] was 15.2 µM and 15.1 µM and 14.8 µM; in assay [2], 16.5 µM and 17.1 µM; in [3], 16.5 µM and 17.2 µM and 17.8 µM; in assay [4] it was 14.1 µM and 14.9 µM and 16.3 µM; in [5] it was 13.7 µM and 1.57 µM and 1.56 µM; in assay [6], 12.6 µM and 14.9 µM and 15.4 µM. The GI50 was 14 µM and 15.7 µM and 12.8 µM in assay [7]; 14.6 µM and 16.6 µM and 16.4 µM in assay [8]; 14.2 µM and 13.6 µM and 16.1 µM in [9]; 13.2 µM and 4.26 µM and 3.98 µM in assay [10]. Further, the TGI is 31.1 µM and 30.9 µM and 30.1 µM in [1]; 61.6 µM and 53.1 µM and 74.1 µM in [2]; 32 µM and 32.9 µM and 35.1 µM in assay [3]; 28.4 µM and 32 µM and 33.2 µM in [4]; 30.2 µM and 6.83 µM and 5.86 µM in assay [5]; 25.7 µM and 29.2 µM and 29.9 µM in [6]. The TGI was 27.6 µM and 29.8 µM and 26 µM in assay [7]; > 63.7 µM and 62.7 µM and 56.8 µM in [8]; 27.9 µM and 27.5 µM and 33.3 µM in [9]; 26.5 µM and 19.3 µM and 18.3 µM in assay [10].
In the case of `O=C1CC(c2ccsc2)c2snc(-c3ccc(Cl)cc3)c2N1` (stereo unspecified), the GI50 in assay [1] was 3.01 µM; in [2] it was 0.356 µM; in [3], 2.9 µM; in assay [4], 0.804 µM; in assay [5], 7.55 µM; in assay [6] it was 2.26 µM. For the same compound, the GI50 in assay [7] was 1.99 µM; in assay [8], 0.6 µM; in assay [9], 0.26 µM; in assay [10], 4.08 µM. The TGI in assay [1], in assay [2], in assay [3], in assay [4], in assay [5] and in [6] was more than 100 µM throughout. For the same compound, the TGI in assay [7] is more than 100 µM; in assay [8], 5.44 µM; in [9] it was 0.977 µM; in assay [10] it was more than 100 µM.
As to `COc1ccc2c(c1)C(=O)c1c-2c(N2CCN(C(=O)CNCCN(C)C)CC2)nc2ccccc12`, the GI50 in assay [1] was 3.9 µM; in [2], 0.72 µM; in assay [3] it was 1.6 µM; in assay [4] it was 1.88 µM; in assay [5], 4.11 µM; in assay [6] it was 1.75 µM. The GI50 was 1.37 µM in assay [7], 1.67 µM in assay [8], 2.38 µM in [9] and 1.95 µM in assay [10]. Besides, the TGI in [1] was 17.5 µM; in assay [2], more than 100 µM; in assay [3], 3.03 µM; in assay [4], 3.52 µM; in [5], 18 µM; in assay [6] it was 3.43 µM. The TGI in [7] was determined as 2.98 µM; in assay [8], 3.84 µM; in assay [9], 4.98 µM; in assay [10], 3.7 µM.
For `CCCC(C)c1c(Cl)nc(Cl)nc1Cl` (stereo unspecified), the TGI in assay [1] was 55.9 µM; in assay [2] it was more than 100 µM; in [3] it was 19 µM; in [4], 3.92 µM; in assay [5] it was 18.7 µM; in [6], 5.16 µM. In addition, the TGI was 29.9 µM in assay [7], more than 100 µM in [8], 21 µM in assay [9] and 26.2 µM in [10].
Turning to `O=C1C(Br)=C(Br)C(=O)c2ccccc21`, the GI50 in assay [1] was 17 µM and 7.06 µM; in assay [3] it was 19.4 µM and 2.82 µM; in assay [5], 15.5 µM and 4.52 µM; in assay [10] it was 18.2 µM and 8.21 µM. In addition, the TGI in [1] was 30.9 µM and 57 µM; in assay [2] it was more than 100 µM; in [3] it was 36 µM and 10.6 µM; in [4], 28.4 µM and 22.6 µM; in assay [5], 31.9 µM and 12.2 µM; in assay [6], 15.3 µM. Moreover, the TGI in assay [7] is 46.3 µM and 34.5 µM; in [8], 10.4 µM; in assay [9], 21.8 µM; in assay [10], 32.6 µM and 16.7 µM.
